This passage reports IC50 and MIC results from ChEMBL document CHEMBL4823257, “Penitol A and Penicitols E-I: Citrinin Derivatives from Penicillium citrinum and the Structure Revision of Previously Proposed Analogues” (J Nat Prod, 2021).

pIC50: −log10 of the molar value. In brackets after ≈: the same amount, converted by molar mass. Bounds are passed on as bounds.

The test system of one assay is Bel-7402. As to the kind of experiment: Cytotoxicity against human Bel-7402 cells by SRB assay. It is filed as functional, cell-based.
Another assay concerns Pseudomonas aeruginosa. As to the kind of experiment: Antibacterial activity against Pseudomonas aeruginosa 14. It counts as functional.
For a further assay, the system named is Escherichia coli. As to the kind of experiment: Antibacterial activity against Escherichia coli ATCC 25922. It counts as functional.
A further assay relates to K562. As to the kind of experiment: Cytotoxicity against human K562 cells by MTT assay. It counts as functional, cell-based. A general note: Formazan colour is commonly taken as a measure of viable cells.
In the next assay the test system is MDA-MB-231. As to the kind of experiment: Cytotoxicity against human MDA-MB-231 cells by SRB assay. It counts as functional, cell-based.
In another assay the test system is A549. As to the kind of experiment: Cytotoxicity against human A549 cells by SRB assay. It is filed as functional, cell-based. For orientation: Sulforhodamine B stains cellular protein and so reports cell mass.
A further assay deals with HCT-116. As to the kind of experiment: Cytotoxicity against human HCT-116 cells by SRB assay. It is filed as functional, cell-based.
In the next assay the test system is L02. As to the kind of experiment: Cytotoxicity against human L02 cells by SRB assay. It counts as functional, cell-based.
The next assay has as its system HL-60. As to the kind of experiment: Cytotoxicity against human HL-60 cells by MTT assay. It is filed as functional, cell-based.
Another assay relates to Enterococcus faecalis. As to the kind of experiment: Antibacterial activity against Vancomycin resistant Enterococcus faecalis 1010798. It is filed as functional.
Another assay concerns Staphylococcus aureus. As to the kind of experiment: Antibacterial activity against Staphylococcus aureus ATCC 29213. It counts as functional.
A further assay concerns Klebsiella pneumoniae. As to the kind of experiment: Antibacterial activity against Klebsiella pneumoniae WNX-1. It is filed as functional.
In another assay the test system is MCF7. As to the kind of experiment: Cytotoxicity against human MCF7 cells by SRB assay. It is filed as functional, cell-based.
In a further assay the test system is Bacillus subtilis. As to the kind of experiment: Antibacterial activity against Bacillus subtilis ATCC 6051. It is filed as functional.

As usually defined, the pIC50 is −log10 of the IC50, conventionally taken in molar units. A lower pIC50 goes with a large IC50. The MIC is the smallest concentration in the dilution series that meets the test's criterion for growth inhibition. Read a low MIC as greater potency. As to `Cc1c(O)cc2c3c1[C@H](C)[C@@H](C)O[C@H]3[C@@H]1CCCC[C@@]1(O)O2`, the pIC50 in the assay on Bel-7402, in the assay on K562, in the assay with MDA-MB-231, with A549, in the assay on HCT-116 and with L02 was less than 4.52 each time. Further, the pIC50 in the assay with HL-60 and in the assay on MCF7 was less than 4.52 throughout. Besides, the minimal inhibitory concentration (MIC) against Pseudomonas aeruginosa, against Escherichia coli, against Enterococcus faecalis, in the assay on Staphylococcus aureus, in the assay on Klebsiella pneumoniae and in the assay on Bacillus subtilis was more than 64 µg/mL in each case.
On to `C/C=C/[C@@H]1C=C[C@@H]2C[C@H](C)CC[C@H]2[C@]1(C)/C(O)=C1/C(=O)[C@H](CO)N(C)C1=O`, for which the MIC with Enterococcus faecalis was 2 µg/mL (≈ 5.35 µM); against Staphylococcus aureus, 2 µg/mL (≈ 5.35 µM); in the assay with Bacillus subtilis, 1 µg/mL (≈ 2.68 µM).
For `Cc1c(O)cc2c3c1[C@H](C)[C@@H](C)O[C@@H]3[C@@H]1CCCC[C@]1(O)O2`, the pIC50 with Bel-7402, in the assay on K562, in the assay with MDA-MB-231, in the assay on A549, in the assay with HCT-116 and with L02 was less than 4.52 throughout. Moreover, the negative-log IC50 (pIC50) in the assay with HL-60 and in the assay with MCF7 was less than 4.52 each time. Further, the MIC in the assay on Pseudomonas aeruginosa, in the assay on Escherichia coli, in the assay with Enterococcus faecalis, in the assay with Staphylococcus aureus, in the assay on Klebsiella pneumoniae and against Bacillus subtilis was more than 64 µg/mL throughout.
For `Cc1c(O)cc2c3c1[C@H](C)[C@@H](C)O[C@@H]3[C@H]1CCCC[C@]1(O)O2`, the negative-log IC50 (pIC50) with Bel-7402, in the assay on K562, in the assay with MDA-MB-231, in the assay on A549, in the assay on HCT-116 and in the assay with L02 was less than 4.52 each time. Also, the pIC50 in the assay with HL-60 and in the assay with MCF7 was less than 4.52 each time. Also, the MIC in the assay with Pseudomonas aeruginosa, with Escherichia coli, against Enterococcus faecalis, with Staphylococcus aureus, in the assay on Klebsiella pneumoniae and against Bacillus subtilis was more than 64 µg/mL in each case.
Regarding `Cc1c(O)cc(O)c2c1[C@H](C)[C@@H](C)OC21CCCCC1`, the negative-log IC50 (pIC50) in the assay on Bel-7402 was 4.92; with K562, 5.06; in the assay with MDA-MB-231, 4.59; with A549, 4.55; with HCT-116 it was 4.62; with L02 it was less than 4.52. Moreover, the pIC50 in the assay on HL-60 is 4.70; in the assay on MCF7, 4.82. The minimum inhibitory concentration (MIC) with Pseudomonas aeruginosa is more than 64 µg/mL; with Escherichia coli, more than 64 µg/mL; with Enterococcus faecalis it was 32 µg/mL (≈ 116 µM); against Staphylococcus aureus, 16 µg/mL (≈ 57.9 µM); against Klebsiella pneumoniae it was more than 64 µg/mL; with Bacillus subtilis, 32 µg/mL (≈ 116 µM).
In the case of `CO[C@]12CCCC[C@@H]1[C@H]1O[C@H](C)[C@@H](C)c3c(C)c(O)cc(c31)O2`, the pIC50 in the assay on Bel-7402 is 4.77; in the assay on K562, less than 4.52; in the assay on MDA-MB-231, less than 4.52; in the assay with A549, 4.72; in the assay on HCT-116, less than 4.52; in the assay on L02 it was less than 4.52. The negative-log IC50 (pIC50) with HL-60 and with MCF7 was less than 4.52 in each case. For the same molecule, the MIC against Pseudomonas aeruginosa, in the assay on Escherichia coli, in the assay with Enterococcus faecalis, in the assay with Staphylococcus aureus, against Klebsiella pneumoniae and in the assay on Bacillus subtilis was more than 64 µg/mL each time.
In the case of COLISTIN, the MIC came to 0.3 µg/mL in the assay on Pseudomonas aeruginosa, 0.5 µg/mL against Escherichia coli and 0.5 µg/mL against Klebsiella pneumoniae.
`Cc1c(O)cc2c3c1[C@H](C)[C@@H](C)O[C@H]3[C@H]1CCCC[C@@]1(O)O2`: the MIC against Pseudomonas aeruginosa, against Escherichia coli, in the assay on Enterococcus faecalis, with Staphylococcus aureus, against Klebsiella pneumoniae and in the assay on Bacillus subtilis was more than 64 µg/mL in each case. Further, the pIC50 with K562, with MDA-MB-231 and with L02 was less than 4.52 throughout.
Regarding `CO[C@@]12CCCC[C@H]1[C@@H]1O[C@H](C)[C@@H](C)c3c(C)c(O)cc(c31)O2`, the pIC50 is less than 4.52 in the assay on Bel-7402; 4.59 in the assay on K562; less than 4.52 with MDA-MB-231; less than 4.52 in the assay with A549; less than 4.52 in the assay with HCT-116; less than 4.52 in the assay with L02. Also, the pIC50 with HL-60 and in the assay on MCF7 was less than 4.52 each time. Further, the MIC against Pseudomonas aeruginosa was more than 64 µg/mL; against Escherichia coli, more than 64 µg/mL; against Enterococcus faecalis, 32 µg/mL (≈ 100 µM); with Staphylococcus aureus, 64 µg/mL (≈ 201 µM); with Klebsiella pneumoniae it was more than 64 µg/mL; against Bacillus subtilis it was 32 µg/mL (≈ 100 µM).
For `COc1cccc2c1C(=O)c1c(O)c3c(c(O)c1C2=O)C[C@@](O)(C(=O)CO)C[C@@H]3O[C@H]1C[C@H](N)[C@H](O)[C@H](C)O1` [DOXORUBICIN], the pIC50 with Bel-7402, with K562, with MDA-MB-231, in the assay with A549, with HCT-116 and in the assay on L02 was more than 6.00 each time. Further, the pIC50 with HL-60 and with MCF7 was more than 6.00 throughout.
